# Data as given in patent publication US10010538B2, “Use of anthelmintic agents against Dirofilaria immitis” (Intervet Inc., priority 2014, dated 2018).
# Assays:
# [1] = test system: L4 larvae of D. immitis; assay: microbe, parasite or virus in culture; format: cell-based; conditions: Dirofilaria immitis, 72 h, read-out: MIC100, lowest dose that results in complete loss of motility
# [2] = test system: D. immitis microfilariae; assay: Activity against D. immitis microfilariae (viability after 3 days incubation); format: cell-based; conditions: Dirofilaria immitis, in Canis lupus familiaris, 72 h, read-out: Microfilaricidal activity, half maximal effective concentration (EC50)
SMILES,MIC [1] [µM],EC50 [2] [µM]
O=C(CO[C@H]1CC[C@H](Nc2ccc([N+](=O)[O-])c(C(F)(F)F)c2)CC1)N1CCC(Oc2ccc(OC(F)(F)F)cc2)CC1 [Example 266],< 10,< 5
O=C(CO[C@H]1CC[C@H](Nc2ccc([N+](=O)[O-])c(C(F)(F)F)c2)CC1)N1CCC(Nc2ccc(C(F)(F)F)cc2)CC1 [Example 267],< 10,< 10
